In patent publication US8324406B2, “Antitumoral dihydropyran-2-one compounds” (priority 2006, dated 2012):

How the values were obtained:
Test in all cases: cells
Assay type in all cases: cell-based
A549 = conditions: Homo sapiens, A549, 48 hours exposure, SRB; for CC50: 50% net cell killing (cytotoxic effect), read-out: LC50 (the source's name); for GI50: concentration that produces 50% growth inhibition, read-out: GI50; for IC (TGI): total growth inhibition (cytostatic effect), read-out: TGI
Source text: (§1) The aim of this assay is to evaluate the in vitro cytostatic (ability to delay or arrest tumor cell growth) or cytotoxic (ability to kill tumor cells) activity of the samples being tested.
(§2) Evaluation of Cytotoxic Activity Using the SBR Colorimetric Assay
(§3) A colorimetric type of assay, using sulforhodamine B (SRB) reaction has been adapted for a quantitative measurement of cell growth and viability (following the technique described by Skehan P et al. J. Natl. Cancer Inst. 1990, 82, 1107-1112).
(§4) This form of assay employs SBS-standard 96-well cell culture microplates (Faircloth et al. Methods in cell science, 1988, 11(4), 201-205; Mosmann et al, Journal of. Immunological. Methods, 1983, 65(1-2), 55-63). All the cell lines used in this study, derived from different types of human cancer, were obtained from the American Type Culture Collection (ATCC).
(§5) Cells were maintained in Dulbecco's Modified Eagle Medium (DMEM) supplemented with 10% Fetal Bovine Serum (FBS), 2 mM L-glutamine, 100 U/mL penicillin and 100 U/mL streptomycin at 37° C., 5% CO2 and 98% humidity. For the experiments, cells were harvested from subconfluent cultures using trypsinization and resuspended in fresh medium before counting and plating.
(§6) Cells were seeded in 96 well microtiter plates at 5×10^3 cells per well in aliquots of 150 μL, and allowed to attach to the plate surface for 18 hours in drug free medium. One control (untreated) plate of each cell line was fixed (as described below) and used for time zero reference value. Afterwards, test samples were added to the cultures in ten serial dilutions, in aliquots of 50 μL, ranging from 10 to 0.00262 μg/mL. After 48 hours exposure, the antitumor effect was estimated by the SRB method: Briefly, cells were washed twice with PBS, fixed for 15 min in 1% glutaraldehyde solution, rinsed twice in PBS, and stained in 0.4% SRB solution for 30 min at room temperature. Cells were then rinsed several times with 1% acetic acid solution and air-dried. SRB was then extracted in 10 mM trizma base solution and the absorbance measured in an automated spectrophotometric plate reader at 490 nm. Cell survival was expressed as percentage of control cell growth. The final effect of the sample being tested was estimated by applying the NCI algorithm (Boyd M R and Paull K D. Drug Dev. Res. 1995, 34, 91-104).
(§7) Using the mean±SD of triplicate cultures, a dose-response curve was automatically generated using nonlinear regression analysis. Three reference parameters were calculated (NCI algorithm) by automatic interpolation: GI50=concentration that produces 50% growth inhibition; TGI=total growth inhibition (cytostatic effect) and LC50=concentration that produces 50% net cell killing (cytotoxic effect).

HT29 = conditions: Homo sapiens, HT-29, HT29, 48 hours exposure, SRB; for CC50: 50% net cell killing (cytotoxic effect), read-out: LC50 (the source's name); for GI50: concentration that produces 50% growth inhibition, read-out: GI50; for IC (TGI): total growth inhibition (cytostatic effect), read-out: TGI
Source text: as §1, §2, §3, §4, §5, §6, §7

MDA-MB-231 = conditions: Homo sapiens, MDA-MB-231, 48 hours exposure, SRB; for CC50: 50% net cell killing (cytotoxic effect), read-out: LC50 (the source's name); for GI50: concentration that produces 50% growth inhibition, read-out: GI50; for IC (TGI): total growth inhibition (cytostatic effect), read-out: TGI
Source text: as §1, §2, §3, §4, §5, §6, §7

Row | Compound | CC50 (A549) | GI50 (A549) | IC (TGI) (A549) | CC50 (HT29) | GI50 (HT29) | IC (TGI) (HT29) | CC50 (MDA-MB-231) | GI50 (MDA-MB-231) | IC (TGI) (MDA-MB-231)
1 | COC1=CC[C@@H]([C@@H](C)/C=C(C)/C=C\C=C/C(=O)N[C@H](C(=O)N/C=C\C[C@H](C/C=C(\C)Cl)O[Si](C)(C)C(C)(C)C)C(C)(C)C)OC1=O [Compound 29a] | 8560 nM | 886 nM | 3.4 µM | 4430 nM | 605 nM | 1.42 µM | 6200 nM | 1180 nM | 2.8 µM
2 | COC1=CC[C@@H]([C@@H](C)/C=C(C)/C=C\C=C/C(=O)N[C@@H](Cc2ccccc2)C(=O)N/C=C\C[C@H](C/C=C(\C)Cl)O[Si](C)(C)C(C)(C)C)OC1=O [Compound 29d] | 1380 nM | 464 nM | 0.801 µM | 928 nM | 829 nM | 0.872 µM | 1830 nM | 1100 nM | 1.39 µM
3 | COC1=CC[C@@H]([C@@H](C)/C=C(C)/C=C\C=C\C(=O)N[C@H](C(=O)N/C=C\C[C@H](C/C=C(\C)Cl)O[Si](C)(C)C(C)(C)C)C(C)(C)C)OC1=O [Compound 29e] | 2660 nM | 1150 nM | 1.77 µM | 2360 nM | 2070 nM | 2.21 µM | 2070 nM | 1140 nM | 1.48 µM
4 | COC1=CC[C@@H]([C@@H](C)/C=C(C)/C=C\C=C/C(=O)N[C@H](C(=O)N/C=C\C[C@@H](O)C/C=C(\C)Cl)C(C)(C)C)OC1=O [Compound 30a] | > 1780 nM | 2.31 nM | 0.137 µM | 10.1 nM | 1.35 nM | 0.00213 µM | 85.2 nM | 1.95 nM | 0.00941 µM
5 | C/C=C\C[C@H](O)C/C=C\NC(=O)[C@@H](NC(=O)\C=C/C=C\C(C)=C\[C@H](C)[C@@H]1CC=C(OC)C(=O)O1)C(C)(C)C [Compound 30b] | > 18900 nM | 22.7 nM | 0.322 µM | 4730 nM | 9.84 nM | 0.0927 µM | 5110 nM | 20.8 nM | 0.511 µM
6 | COC1=CC[C@@H]([C@@H](C)/C=C(C)/C=C\C=C/C(=O)N[C@H](C(=O)N/C=C\C[C@@H](O)C/C=C(\C)Cl)C(C)C)OC1=O [Compound 30c] | > 182 nM | 0.71 nM | 0.0031 µM | > 182 nM | 0.474 nM | 0.000838 µM | 52.8 nM | 0.983 nM | 0.00583 µM
7 | COC1=CC[C@@H]([C@@H](C)/C=C(C)/C=C\C=C/C(=O)N[C@@H](Cc2ccccc2)C(=O)N/C=C\C[C@@H](O)C/C=C(\C)Cl)OC1=O [Compound 30d] | > 16.7 nM | 0.318 nM | 0.00106 µM | > 16.7 nM | 0.132 nM | 0.000251 µM | > 16.7 nM | 0.31 nM | 0.000703 µM
8 | COC1=CC[C@@H]([C@@H](C)/C=C(C)/C=C\C=C\C(=O)N[C@H](C(=O)N/C=C\C[C@@H](O)C/C=C(\C)Cl)C(C)(C)C)OC1=O [Compound 30e] | 3550 nM | 35.5 nM | 0.302 µM | 44.4 nM | 13.5 nM | 0.0213 µM | 266 nM | 23.1 nM | 0.0657 µM
9 | C/C(Cl)=C\C[C@H](O)C/C=C\NC(=O)[C@@H](NC(=O)\C=C/C=C\C(C)=C\[C@H](C)[C@@H]1CC=CC(=O)O1)C(C)(C)C [Compound 30f] | 919 nM | 488 nM | 0.657 µM | 1050 nM | 488 nM | 0.713 µM | 1610 nM | 694 nM | 1.07 µM
